Like-named read-outs stand apart in the source and are kept apart here.

The test system of assay [1] is levator ani muscle. Briefly: Hershberger assays of compounds H-1 to H-4. Format: in vivo, rat. The note with it: calculated in Win Non-Lin. Here is the method: FIG. 3 depicts results of Hershberger assays of compounds of the invention as described in Example 17. AUC is area under the concentration-time curve.
Hershberger assays as described above for Formulas VIII-XIV were also performed on compounds H-1, H-2, H-3, & H-4, as reported in FIG. 3, along with AR binding data in some cases in Table 11. The reported Emax values were calculated in Win Non-Lin®.

Assay [2] deals with levator ani muscle. Briefly: Levator ani muscle weight in castrated rats treated subcutaneously for 14 days. The note with it: castrated Sprague Dawley rats, subcutaneous, 3 mg/day. Format: in vivo, rat. The text has this:
At sacrifice, organs were weighed and expressed as raw organ weights. Values are expressed as average±S.D. Increased size and strength of pelvic floor muscles is one mechanism by which SARMs are believed to affect UI.
At sacrifice, organs were weighed and expressed as raw organ weights. Values are expressed as average±S.D.

The next assay relates to ovariectomized rat model. The following applies: cited from earlier work.
Assay [3] deals with prostate, seminal vesicles and levator ani muscle. Briefly: Androgenic and anabolic activity in castrated (ORX) male rats, daily oral gavage for fourteen days. Format: in vivo, rat. The note with it: castrated rats, comparators. Here is the method: Male Sprague-Dawley rats weighing approximately 200 g were purchased from Harlan Bioproducts for Science (Indianapolis, Ind.). […] The anabolic and androgenic activity of compound of Formula VIII in intact animals was tested, as well as a dose response evaluation in acutely orchidectomized (ORX) animals. Regenerative effects of the compound of Formula VIII in chronically (9 days) ORX rats was similarly evaluated.
The test article for this study was weighed and dissolved in 10% DMSO (Fisher) diluted with PEG 300 (Acros Organics, NJ) for preparation of the appropriate dosage concentrations. […] Animals were randomly assigned to one of seven groups consisting of 4 to 5 animals per group. Control groups (intact and ORX) were administered vehicle daily. Compound of Formula VIII was administered via oral gavage at doses of 0.01, 0.03, 0.1, 0.3, 0.75, and 1 mg/day to both intact and ORX groups. Where appropriate, animals were castrated on day one of the study. Treatment with compound of Formula VIII began nine days post ORX and was administered daily via oral gavage for fourteen days.
(§1) In addition, ventral prostate, seminal vesicles, and levator ani muscle were removed, individually weighed, normalized to body weight, and expressed as a percentage of intact control. Student's T-test was used to compare individual dose groups to the intact control group. Significance was defined a priori as a P-value <0.05. Ventral prostate and seminal vesicle weights were evaluated as a measure of androgenic activity, whereas levator ani muscle weight was evaluated as a measure of anabolic activity. Blood was collected from the abdominal aorta, centrifuged, and sera were frozen at −80° C. prior to determination of serum hormone levels. Serum luteinizing hormone (LH) and follicle stimulating hormone (FSH) concentrations were determined.
Male Sprague-Dawley rats weighing approximately 200 g were purchased from Harlan Bioproducts for Science (Indianapolis, Ind.). […] Anabolic and androgenic activity of compound of Formula IX in intact animals was evaluated, and the dose response in acutely orchidectomized (ORX) animals was evaluated as well. Regenerative effects of compound of Formula IX in chronically (9 days) ORX rats were also assessed.
The compound was weighed and dissolved in 10% DMSO (Fisher) diluted with PEG 300 (Acros Organics, NJ) for preparation of the appropriate dosage concentrations. […] Intact and ORX animals were randomly assigned to one of seven groups consisting of 4 to 5 animals per group. Control groups (intact and ORX) were administered vehicle daily. Compound of Formula IX was administered via oral gavage at doses of 0.01, 0.03, 0.1, 0.3, 0.75, and 1 mg/day to both intact and ORX groups.
as §1, with “Castrated animals (on day one of the study) were randomly assigned to dose groups (4-5 animals/group) of 0.01, 0.03, 0.1, 0.3, 0.75, and 1 mg/day, for dose-response evaluation. Dosing began nine days post ORX and was administered daily via oral gavage for fourteen days. […] In” for “In”, “As a measure of androgenic activity, ventral” for “Ventral”, “evaluated,” for “evaluated as a measure of androgenic activity,”, “lutenizing” for “luteinizing”
Male Sprague-Dawley rats weighing approximately 200 g were purchased from Harlan Bioproducts for Science (Indianapolis, Ind.).

The test system is the same in assay [4]. Briefly: Androgenic and anabolic effects in intact, hemi-orchidectomized and castrated rats, subdermal osmotic pumps, 14 days. It counts as in vivo, rat. The note with it: 0.5 mg/day, n = 5. As for the experimental part:
Male Sprague-Dawley rats were purchased from Harlan Biosciences (Indianapolis, Ind.). The animals were maintained on a 12 h cycle of light and dark with food and water available ad libitum. All animal studies were reviewed and approved. Immature male Sprague-Dawley rats weighing 187 to 214 g were randomly distributed into 9 groups of 5 animals. One day before the initiation of drug treatment, groups 4 through 6 and groups 7 through 9 received unilateral or bilateral orchidectomy, respectively, via a midline scrotal incision. […] All drugs given to animals were freshly prepared as solutions in polyethylene glycol 300 (PEG 300). Groups 4 and 7 received treatment with vehicle alone (i.e., PEG 300). […] Animals in groups 2, 5, and 8 received compound of Formula XII (0.5 mg/day) via implantation of subdermal osmotic pumps. After 14 days of drug treatment, rats were weighed, anesthetized, and sacrificed. The ventral prostates, seminal vesicles, and levator ani muscle were removed and weighed. Osmotic pumps were also removed from animals to check for correct pump operation. The weights of all organs were normalized to body weight, and analyzed for any statistically significant differences between groups using single-factor ANOVA with the alpha value set a priori at p<0.05. The weights of prostates and seminal vesicles were used as indices for evaluation of androgenic activity, and the levator ani muscle weight was used to evaluate the anabolic activity. Statistical analyses of parameters from complete blood count or serum chemical profiling, wherever applicable, were performed by single-factor ANOVA with the alpha value set a priori at p<0.05.

For assay [5] the test system is unchanged. Briefly: Androgenic and anabolic activity in castrated immature male rats, subcutaneous osmotic pumps, 14 days. It counts as in vivo, rat. The following applies: castrated rats, 14 days, FIG. 2. As for the experimental part:
Immature male Sprague-Dawley rats, weighing 90 to 100 g, were purchased from Harlan Biosciences (Indianapolis, Ind.). The animals were maintained on a 12 hour light-dark cycle with food and water available ad libitum.
Rats were randomly distributed into treatment groups groups. One day prior to the start of drug treatment, animals were individually removed from the cage, weighed and anesthetized with an intraperitoneal dose of ketamine/xylazine (87/13 mg/kg; approximately 1 mL per kg). When appropriately anesthetized (i.e., no response to toe pinch), the animals' ears were marked for identification purposes. Animals were then placed on a sterile pad and their abdomen and scrotum washed with betadine and 70% alcohol. The testes were removed via a midline scrotal incision, with sterile suture being used to ligate supra-testicular tissue prior to surgical removal of each testis. The surgical wound site was closed with sterile stainless steel wound clips, and the site cleaned with betadine. The animals were allowed to recover on a sterile pad (until able to stand) and then returned to their cage.
Twenty-four hours later, animals were re-anesthetized with ketamine/xylazine, and an Alzet osmotic pump(s) (model 2002) was placed subcutaneouly in the scapular region. In this instance, the scapular region was shaved and cleaned (betadine and alcohol) and a small incision (1 cm) made using a sterile scalpel. The osmotic pump was inserted and the wound closed with a sterile stainless steel wound clip. Animals were allowed to recover and were returned to their cage. Osmotic pumps contained the appropriate treatment dissolved in polyethylene glycol 300 (PEG300). Osmotic pumps were filled with the appropriate solution one day prior to implantation. Animals were monitored daily for signs of acute toxicity to drug treatment (e.g., lethargy, rough coat).
After 14 days of drug treatment, rats were anesthetized with ketamine/xylazine. Animals were then sacrificed by exsanguinations under anesthesia. A blood sample was collected by venipuncture of the abdominal aorta, and submitted for complete blood cell analysis. A portion of the blood was placed in a separate tube, centrifuged at 12,000 g for 1 minute, and the plasma layer removed and frozen at −20° C. The ventral prostates, seminal vesicles, levator ani muscle, liver, kidneys, spleen, lungs, and heart were removed, cleared of extraneous tissue, weighed, and placed in vials containing 10% neutral buffered formalin. Preserved tissues were sent for histopathological analysis.
For data analysis, the weights of all organs were normalized to body weight, and analyzed for any statistical significant difference by single-factor ANOVA. The weights of prostate and seminal vesicle were used as indexes for evaluation of androgenic activity, and the levator ani muscle weight was used to evaluate the anabolic activity.

The test system of assay [6] is women with stress urinary incontinence. The following applies: cited from earlier work; for median incontinence episode frequency decreased: placebo 41%.
[7] abbreviates: compared with the vehicle control.

For the molecule `C[C@](O)(COc1ccc(F)cc1)C(=O)Nc1ccc([N+](=O)[O-])c(C(F)(F)F)c1` [Compound H-1], the “Emax in levator ani muscle” value with levator ani muscle [1] is on record as 75 ± 4 % of intact control.
Still for that read-out and setting: the result for `C[C@](O)(COc1ccc(Cl)cc1)C(=O)Nc1ccc([N+](=O)[O-])c(C(F)(F)F)c1` [Compound H-2] reads 136 ± 9 % of intact control; that for `C[C@](O)(COc1ccc(I)cc1)C(=O)Nc1ccc([N+](=O)[O-])c(C(F)(F)F)c1` [Compound H-4], 95 ± 7 % of intact control.
For the molecule `C[C@]12CCC(=O)C[C@@H]1CC[C@@H]1[C@@H]2CC[C@]2(C)[C@@H](O)CC[C@@H]12` [DHT, dihydrotestosterone, reference compound], in the assay on levator ani muscle [2], the “levator ani muscle weight” value is on record as “elicits hypertrophy of the levator ani muscle”.
With `C[C@H](Nc1ccc(C#N)c(Cl)c1Cl)C(C)(C)O` [GSK2849466A], in the assay on ovariectomized rat model (setting [7]), the “increase of amplitude of urethral responses during sneezing (AURS)” value was 74% and the “increase of urethral baseline pressure (UBP)” value is on record as 64%. In addition, in the assay on ovariectomized rat model (vehicle group 8/8), the “rats with fluid leakage during sneezing” value is reported as 1/8.
For `CCC(=O)O[C@H]1CC[C@H]2[C@@H]3CCC4=CC(=O)CC[C@]4(C)[C@H]3CC[C@]12C` [TP, testosterone propionate, reference compound], the “maximal stimulation of levator ani muscle weight” value in assay [3] turned out to be 104%. In addition, the “Levator Ani weight” value in assay [4] (Castrated rats) was 87.27 ± 10.25 % of intact control; in assay [4] (Hemi-castrated rats), 98.63 ± 10.47 % of intact control; in assay [4] (Intact rats), 95.61 ± 9.34 % of intact control. The prostate weight in assay [4] (Castrated rats) is reported as 76.78 ± 10.43 % of intact control; in assay [4] (Hemi-castrated rats) it was 98.57 ± 7.98 % of intact control; in assay [4] (Intact rats) it was 97.45 ± 10.82 % of intact control. Besides, the “seminal vesicle weight” value is listed as 63.48 ± 17.05 % of intact control in assay [4] (Castrated rats), 114.19 ± 23.81 % of intact control in assay [4] (Hemi-castrated rats) and 103.95 ± 13.23 % of intact control in assay [4] (Intact rats). Besides, the “weights of prostate, seminal vesicle and levator ani muscle” value in assay [5] is “increased the weights of prostate, seminal vesicle, and levator ani muscle in castrated rats in a dose-dependent manner”.
Turning to `CNCC[C@H](Oc1cccc2ccccc12)c1cccs1` [duloxetine], the “reduction in incontinence episode frequency” value in assay [6] (Dmochowski et al., placebo 27%) is recorded as 50%. The “median incontinence episode frequency decreased” value was 54% in assay [6] (duloxetine 20 mg/day), 59% in assay [6] (duloxetine 40 mg/day) and 64% in assay [6] (duloxetine 80 mg/day).

The values are drawn from patent publication US20180353460A1, “METHODS OF TREATING UROLOGICAL DISORDERS USING SARMs” (priority 2014, published 2018).
